Assay [1] deals with T1, androgen receptor (AR) (Homo sapiens, UniProt P10275).
T1 construct: expressed in transfected cells; host or cells: PC-3 (AR-negative human prostate cancer cell line)
T1 sequence (P10275 1-920): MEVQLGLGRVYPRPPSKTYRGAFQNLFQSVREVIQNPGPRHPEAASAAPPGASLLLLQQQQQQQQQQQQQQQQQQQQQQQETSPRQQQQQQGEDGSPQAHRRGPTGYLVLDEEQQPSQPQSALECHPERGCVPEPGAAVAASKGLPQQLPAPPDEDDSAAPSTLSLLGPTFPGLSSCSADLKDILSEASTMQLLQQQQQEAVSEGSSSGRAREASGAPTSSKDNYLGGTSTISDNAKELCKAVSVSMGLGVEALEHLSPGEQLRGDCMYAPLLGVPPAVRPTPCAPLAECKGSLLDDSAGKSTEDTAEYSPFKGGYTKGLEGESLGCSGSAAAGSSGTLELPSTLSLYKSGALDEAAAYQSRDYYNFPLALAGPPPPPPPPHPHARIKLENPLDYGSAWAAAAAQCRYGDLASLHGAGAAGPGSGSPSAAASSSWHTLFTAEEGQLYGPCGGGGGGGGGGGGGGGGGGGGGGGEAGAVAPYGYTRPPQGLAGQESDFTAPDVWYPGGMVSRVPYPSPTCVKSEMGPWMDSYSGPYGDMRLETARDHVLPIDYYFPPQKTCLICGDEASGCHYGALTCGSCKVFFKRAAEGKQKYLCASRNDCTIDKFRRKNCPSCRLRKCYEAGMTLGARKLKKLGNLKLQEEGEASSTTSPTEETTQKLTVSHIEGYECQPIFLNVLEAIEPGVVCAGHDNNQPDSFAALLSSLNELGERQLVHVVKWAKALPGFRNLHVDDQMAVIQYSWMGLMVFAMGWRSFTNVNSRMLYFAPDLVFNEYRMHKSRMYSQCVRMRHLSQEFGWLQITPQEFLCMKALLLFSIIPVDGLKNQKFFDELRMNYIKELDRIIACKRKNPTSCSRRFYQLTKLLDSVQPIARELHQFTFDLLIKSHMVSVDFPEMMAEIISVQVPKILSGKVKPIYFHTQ
In words: Induction of AR-mediated transcriptional activity (MMTV-CAT reporter assay). The assay is classed as cell-based. The following applies: PC-3 cells co-transfected with AR plasmid and MMTV-CAT; compounds at 1000, 10 and 0.1 nM; FIG. 1. As to the method:
(§1) AR activity assay. […] Ethynyl derivatized steroids were purchased from Steraloids.
Induction of AR-mediated transcriptional activity. Steroid compounds were screened for their ability to induce AR transcriptional activity in the AR-negative PC-3 cell line. The results of the CAT assay were obtained by transient co-transfection of AR plasmid and a reporter plasmid (MMTVCAT) containing the CAT gene linked to the androgen response element (ARE). After transfection, the cells were treated with various DHEA derivatives at 1000, 10, and 0.1 nM.
Background: A reporter such as luciferase makes a cellular process visible.

The target of assay [2] is T2, progesterone receptor (PR) (Homo sapiens, UniProt P06401).
T2 sequence (P06401 1-933): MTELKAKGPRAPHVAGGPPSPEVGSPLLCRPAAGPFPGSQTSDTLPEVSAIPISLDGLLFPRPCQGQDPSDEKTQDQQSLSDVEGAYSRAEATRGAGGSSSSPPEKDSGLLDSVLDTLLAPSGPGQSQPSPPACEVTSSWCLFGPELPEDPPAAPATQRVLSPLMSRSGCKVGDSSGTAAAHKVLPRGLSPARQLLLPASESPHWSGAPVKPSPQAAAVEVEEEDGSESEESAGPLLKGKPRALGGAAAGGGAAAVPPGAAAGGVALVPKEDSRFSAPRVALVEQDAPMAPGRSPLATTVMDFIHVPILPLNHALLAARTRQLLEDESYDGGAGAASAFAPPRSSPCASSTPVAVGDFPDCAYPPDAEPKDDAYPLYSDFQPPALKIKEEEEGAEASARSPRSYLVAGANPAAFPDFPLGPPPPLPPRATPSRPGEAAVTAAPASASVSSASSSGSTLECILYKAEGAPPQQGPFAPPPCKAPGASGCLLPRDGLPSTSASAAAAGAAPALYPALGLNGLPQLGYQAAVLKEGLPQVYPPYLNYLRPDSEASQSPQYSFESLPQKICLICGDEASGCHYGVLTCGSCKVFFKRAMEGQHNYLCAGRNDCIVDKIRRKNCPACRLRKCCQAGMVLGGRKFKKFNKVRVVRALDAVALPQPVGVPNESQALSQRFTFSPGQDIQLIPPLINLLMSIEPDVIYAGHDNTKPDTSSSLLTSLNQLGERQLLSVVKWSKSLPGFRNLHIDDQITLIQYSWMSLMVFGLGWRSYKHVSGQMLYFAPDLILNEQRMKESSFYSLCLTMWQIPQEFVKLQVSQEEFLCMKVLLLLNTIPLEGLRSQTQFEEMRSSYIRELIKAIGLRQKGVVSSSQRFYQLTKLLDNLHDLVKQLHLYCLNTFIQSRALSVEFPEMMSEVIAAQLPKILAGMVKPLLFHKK
The assay can be described thus: Steroid hormone specificity: MMTV-CAT reporter with PR in PC-3 cells. The following applies: PC-3 cells transfected with MMTV-CAT and PR; FIG. 5.
Protocol: Ethynyl derivatized steroids were purchased from Steraloids. The plasmid pSG5-wild-type AR (pSG5) and mouse mammalian tumor virus (MMTV)-chloramphenicol acetyltransferase (CAT) were constructed as described (6). […] The human prostate cancer cell line, PC-3, and human breast cancer cell line, MCF-7, were maintained in Dulbecco's modified eagles medium (DMEM) containing 10% fetal calf serum. DNA transfection and CAT assays were performed essentially as described (4, 6, 7). Briefly, 4×10^5 cells were plated on 60 mm dishes 24 h before transfection, and the medium was changed to DMEM (without phenol red) with 10% charcoal-stripped fetal calf serum 1 hour before transfection. The cells were transfected using the calcium phosphate precipitation method. The total amount of DNA was adjusted to 8.5 μg with pSG5 in each transfection assay. After transfecting the cells for 24 hours, the transfection medium was removed, fresh DMEM was added and steroids were added. The cells were then incubated in DMEM with steroids for 24 hours. After incubation, the cells were harvested and whole cell extracts were used for CAT assay. Transfection efficiency was normalized by cotransfection with a βgalactosidase vector, which acted as an internal control. The CAT enzyme activity was quantitated by phosphor imager according to the manufacturer's instructions (Molecular Dynamics).

Assay [3] deals with T1, androgen receptor (AR). In words: Anti-adiol activity: modulation of AED-induced AR transactivation (MMTV-CAT assay). The assay is classed as cell-based. The following applies: PC-3 cells, pSG5 AR + MMTV-CAT, 50 nM AED, compound at 10, 100 or 1000 nM; FIG. 2B.
Excerpt: as §1

The target of assay [4] is T1, androgen receptor (AR). In words: Suppression of AED-induced AR transcriptional activity in the presence of HF (MMTV-CAT assay). The class given is cell-based. The following applies: PC-3 cells, 1 μM HF, 50 nM AED; FIG. 4.
Excerpt: as §1

As for “3β-methoxy-androst-5-ene-?,17β-diol [Compound 16]”, the “androgenic activity (AR-mediated CAT gene transactivation)” value (“androgenic activity” for short) at androgen receptor (AR) [1] is reported as “little androgenic activity”. For the molecule `C#C[C@]1(O)CCC2C3CCc4cc(O)ccc4C3CC[C@@]21C` (stereo partly drawn) [Compound 4, 1, 3, 5(10)-estratriene-17α-ethynyl-3β,17β-diol], in assay [2], the PR activity entry was “some weak PR activity”. Take `CO[C@H]1CC[C@@]2(C)C(=CC(=O)[C@H]3[C@@H]4CC[C@H](O)[C@@]4(C)CC[C@@H]32)C1` [Compound 15, 3β-methoxy-17β-hydroxy-androst-5-ene-7-one]: at androgen receptor (AR) [1], the “androgenic activity” value was “little androgenic activity”. Also, at androgen receptor (AR) [3], the “effect on AED-mediated AR transcriptional activity” value (from here on “effect”) is “either activation of AED-mediated AR transcriptional activity or they have no effect”. Turning to “3β,17β-diacetoxy-androst-5-ene-7α,17β-diol [Compound 13]”, at androgen receptor (AR) [1], the “androgenic activity” value is on record as “little androgenic activity”. Moreover, the “effect” value on androgen receptor (AR) [3] is reported as “either activation of AED-mediated AR transcriptional activity or they have no effect”. Regarding “17-methyl-marrianolic acid [Compound 18]”, the “androgenic activity” value at androgen receptor (AR) [1] is on record as “little androgenic activity”. For the same molecule, on androgen receptor (AR) [3], the “effect” value is listed as “either activation of AED-mediated AR transcriptional activity or they have no effect”.

Turning to `C[C@]12CC[C@H]3[C@@H](C(=O)C=C4C[C@@H](O)CC[C@@]43C)[C@@H]1CC[C@@H]2O` [Compound 22, 7-oxo-androstene-3β,17β-diol], at androgen receptor (AR) [1], the “androgenic activity” value is “little androgenic activity”. Besides, the “effect” value on androgen receptor (AR) [3] was “either activation of AED-mediated AR transcriptional activity or they have no effect”.

Regarding `C#C[C@]1(O)CCC2C3CC=C4C[C@@H](O)CC[C@]4(C)C3CC[C@@]21C` (stereo partly drawn) [Compound 6, 17α-ethynyl-androst-5-ene-3β,17β-diol], the “androgenic activity” value at androgen receptor (AR) [1] is “little androgenic activity”. The “effect” value on androgen receptor (AR) [3] is “antagonized AED-mediated AR transcriptional activity”. For the molecule `COC(=O)O[C@H]1CC[C@@]2(C)C(=CC(=O)[C@@H]3[C@@H]2CC[C@]2(C)C(=O)CC[C@@H]32)C1` [Compound 10, 3β,-methylcarbonate-androst-5-en-7,17-dione], at androgen receptor (AR) [1], the “androgenic activity” value is “little androgenic activity”. On androgen receptor (AR) [3], the “effect” value is on record as “antagonized AED-mediated AR transcriptional activity”. Take `CC(C)(O)C(=O)Nc1ccc([N+](=O)[O-])c(C(F)(F)F)c1` [HF, hydroxyflutamide]: the “suppression of AED-mediated AR transcription activity by HF” value at androgen receptor (AR) [4] is “about 40%”. Regarding `C[C@]12C[C@H](O)[C@H]3[C@@H](CC=C4C[C@@H](O)CC[C@@]43C)[C@@H]1CC[C@@H]2O` [Compound 5, androst-5-ene-3β,11β,17β-triol], the “androgenic activity” value on androgen receptor (AR) [1] is “little androgenic activity”. Moreover, the “effect” value at androgen receptor (AR) [3] is reported as “either activation of AED-mediated AR transcriptional activity or they have no effect”. `C[C@]12CC[C@H]3[C@@H](CC=C4C[C@@H](O)CC[C@@]43C)[C@@H]1CC(=O)[C@@H]2O` [Compound 8, 3β,17β-dihydroxy-androst-5-en-16-one]: the “androgenic activity” value on androgen receptor (AR) [1] was “little androgenic activity”. For the same molecule, the “effect” value at androgen receptor (AR) [3] is on record as “antagonized AED-mediated AR transcriptional activity”.

Values taken from patent US7776845B2, “Pharmaceutical compositions” (Harbor Biosciences, Inc., priority 1999, dated 2010).
